The values that follow come from publication PMC11763059, “GENI as an AMPK Activator Binds α and γ Subunits and Improves the Memory Dysfunction of Alzheimer’s Disease Mouse Models via Autophagy and Neuroprotection” (Antioxidants, 2025).

The target in data set [1] is T1, AMPK-s7 (γ subunit- D316A) (Rattus norvegicus, UniProt P54645+P80385, D316A).
T1 construct: His (N); made in house
The experiment in a line: SPR analysis, AMPK mutant s7. In kind it is binding. The procedure: Mammalian AMPK subunits (His-α1, β1, and γ1) were cloned into a pET-3d vector, and protein expression and purification were similar to the literature.
SPR analysis was performed with a Biacore T200 instrument (GE Healthcare). Firstly, the purred His-tagged AMPK containing α1β1γ1 protein was captured onto an activated carboxymethylated 5 (CM5) chip using amine coupling to levels ranging from 4000 RU to 6000 RU. Secondly, GENI was dissolved in PBS-P buffer solution (0.05% (v/v) Tween 20 and PBS), and the concentration of GENI was 64 μM. Thirdly, the solution of GENI was diluted to 32 μM, 16 μM, 8 μM, 4 μM, 2 μM, 1 μM and 0.5 μM with PBS-P buffer solution. The sample was filtered by pumping through a […] membrane. A gradient concentration of GENI was injected at a flow rate of 30 μL/min in a running buffer (0.05% (v/v) Tween 20 and PBS). The data were analyzed with Biacore evaluation software (T200 version 2.0) and fitted to the 1:1 Langmuir binding model, and the kinetic parameters were derived.
The non-covalent interaction between drugs and proteins is an important way to exert drug efficacy, and its mode of action and binding affinity usually determine the utilization and biological activity of drugs. AMPK is a heterotrimer complex consisting of an α subunit containing the kinase domain and two regulatory subunits (β- and γ-). Different action sites have varied or even opposite pharmacological effects. The molecular mechanism of interaction between the protein and molecule should be investigated thoroughly. After co-incubation of GENI and AMPK, LC-MS/MS measurements were performed to predict the binding sites. As shown in Extended Data Figure S2, ASP148, ASP157 and ASP166 of the AMPK α subunits and LYS148, ASP156, LYS309, and ASP316 of the AMPK γ subunit were possible to the binding sites of GENI. […] Thus, all of these seven sites affected the binding of GENI and AMPK to varying degrees, and they were located in the C lobe kinase domain of the AMPK α subunit, and the CBS2 and CBS4 domain of the AMPK γ subunit, respectively.
(In general: SPR reads the build-up and loss of mass on a sensor chip optically.)

The test system of another data set is PI3K. The experiment in a line: Drug affinity responsive target stability (DARTS), PI3K. As to conditions: 0.1–100 μM GENI, protein: pronase 50:1. In kind it is binding. How it is done: Cells were lysed by RIPA lysis buffer, and the protein concentration was measured. The lysate was divided into six groups. Before incubation with protease (protein: pronase = 50:1 w/w for PI3K and AMPK detection, 5:1 for MAPK detection, 100:1 for p53 detection) for 25 min in 25 °C, 0.1–100 μM GENI was added to lysates and incubated for 2 h at room temperature. The samples were mixed with loading buffer and then separated on 8% SDS-PAGE for immunoblotting analysis.

In another data set the test system is AMPK. The experiment in a line: CETSA with cerebral cortex and hippocampus protein of mice. The data set is classed as binding. The settings on record: cerebral cortex and hippocampus of mice brains. The procedure: In a 60 mm dish containing 5 mL of DMEM, 2 × 10^6 cells were added and incubated for 24 h. In each plate, 10 μM GENI was added and incubated for 2 h. Cells were harvested and heated at a temperature ranging from 60 °C to 80 °C for PC12 cell samples. We obtained a certain amount of cerebral cortex and hippocampus samples, which were added with PBS and ground. After centrifugation, the supernatant was used as a sample, and we measured the protein concentration with a BCA kit (CoWin Biotech Co., Ltd., Taizhou, Jiangsu, China). The protein of the cerebral cortex or hippocampus was incubated with 10 μM GENI at 37 °C for 2 h and heated from 65 °C to 100 °C for the cerebral cortex sample but 43 °C to 67 °C and 65 °C to 100 °C for the hippocampus sample. Equal volumes of supernatant heated at each temperature point for the control and treatment groups were used for Western blot analysis with the antibody for specific proteins.

In the next data set the test system is PC12 cells. In words: ROS assay (DCFH-DA) in PC12 cells. In kind it is cell-based. As to conditions: GENI 1, 3 and 10 μM 24 h, 0.8 mM H2O2 1 h. The procedure: To determine ROS levels in PC12 cells, we seeded 5 × 10^4 PC12 cells in each well of a 24-well plate. Cells were treated with RES (10 μM) or GENI (1, 3, and 10 μM) for 24 h, followed by 0.8 mM H2O2 for 1 h. DCFH-DA (2,7-dichlorodihydrofluorescein diacetate, final concentration, 10 μM) was then added to each well and incubated for 30 min. Cells were washed with PBS to remove extracellular DCFH-DA, and intercellular ROS was detected by using a SpectraMax M3 multimode microplate reader (Molecular Devices Corporation, San Jose, CA, USA) at an excitation wavelength of 488 nm and an emission wavelength of 525 nm. Meanwhile, DCF in PC12 cells was observed using a fluorescence microscope (HCS, Thermo Fisher, Science, Waltham, MA, USA). To detect malondialdehyde (MDA) content and total SOD enzymatic activities in PC12 cells, we seeded 2 × 10^6 PC12 cells in 60 mm dishes containing 5 mL of DMEM and cultured the cells for 24 h. PC12 cells were treated with RES (10 μM) or GENI (3 or 10 μM) for 24 h and then treated with 0.8 mM H2O2 for 1 h to determine the MDA content and total superoxide dismutase (SOD) activities. Cells were lysed and centrifuged. […] MDA quantification and total SOD activities were determined using MDA and SOD enzyme activity assay kits (Nanjing Jiancheng Bioengineering Institute, Nanjing, China) following the manufacturer’s instructions.

For data set [2] the following is noted: mouse, in vivo.
Text: Each group comprised 10 mice. […] Dosing lasted for 10 weeks. […] The mice were sacrificed after 10 weeks of administration.
At the end of the animal experiment, the epididymis fat, heart, liver, spleen, and kidney of the mice were removed for weighing analysis.

T1 sequence (P54645 13-559 limits assumed): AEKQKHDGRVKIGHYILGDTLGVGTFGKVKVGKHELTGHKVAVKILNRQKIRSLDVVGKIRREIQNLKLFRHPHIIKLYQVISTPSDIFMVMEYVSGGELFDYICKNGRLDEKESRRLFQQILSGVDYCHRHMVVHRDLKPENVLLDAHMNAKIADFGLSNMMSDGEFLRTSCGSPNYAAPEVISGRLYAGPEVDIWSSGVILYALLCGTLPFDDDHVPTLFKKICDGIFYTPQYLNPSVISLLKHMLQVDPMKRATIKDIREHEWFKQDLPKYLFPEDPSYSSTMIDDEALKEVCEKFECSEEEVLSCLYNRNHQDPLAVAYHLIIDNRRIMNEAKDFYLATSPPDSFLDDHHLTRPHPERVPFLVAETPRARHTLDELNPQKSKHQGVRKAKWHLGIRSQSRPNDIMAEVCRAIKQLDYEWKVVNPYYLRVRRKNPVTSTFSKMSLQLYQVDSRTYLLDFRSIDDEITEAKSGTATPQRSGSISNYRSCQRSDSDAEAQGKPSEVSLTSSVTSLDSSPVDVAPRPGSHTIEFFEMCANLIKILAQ
T1 sequence (P80386 whole entry partner): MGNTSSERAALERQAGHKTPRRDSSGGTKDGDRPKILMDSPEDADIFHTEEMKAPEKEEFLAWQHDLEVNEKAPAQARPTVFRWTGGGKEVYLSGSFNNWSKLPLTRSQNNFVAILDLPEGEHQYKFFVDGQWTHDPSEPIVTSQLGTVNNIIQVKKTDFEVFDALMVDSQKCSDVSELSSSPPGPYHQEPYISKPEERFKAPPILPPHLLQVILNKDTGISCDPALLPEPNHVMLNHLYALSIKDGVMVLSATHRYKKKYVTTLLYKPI
T1 sequence (P80385 whole entry D316A): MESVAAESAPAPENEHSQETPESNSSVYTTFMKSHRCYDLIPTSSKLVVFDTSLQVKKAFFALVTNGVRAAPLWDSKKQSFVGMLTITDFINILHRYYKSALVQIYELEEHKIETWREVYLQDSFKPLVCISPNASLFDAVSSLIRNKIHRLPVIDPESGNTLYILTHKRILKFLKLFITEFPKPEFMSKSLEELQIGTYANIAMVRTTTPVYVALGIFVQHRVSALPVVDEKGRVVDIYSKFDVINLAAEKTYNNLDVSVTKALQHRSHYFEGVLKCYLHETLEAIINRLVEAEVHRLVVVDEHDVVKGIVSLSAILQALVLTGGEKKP

For `CC(C)CCOC(=O)C1=CO[C@@H](O[C@@H]2O[C@H](CO)[C@@H](O)[C@H](O)[C@H]2O)C2C(CO)=CCC12` (stereo partly shown) [GENI, Geniposidic 4-isoamyl ester], in data set [1] (SPR), the Kd (in general, the equilibrium constant for the complex coming apart) was 6.46 µM. The kon in data set [1] (SPR, association rate, read-out: Ka) worked out at 808 M⁻¹ s⁻¹. For the same compound, the “response (RU) in SPR” value in data set [1] (point mutation of D316, versus wild-type) was “significantly reduced”. For the same compound, in the data set on PI3K, the “stability of PI3K against pronase (DARTS)” value is “no obvious effect”. For the same compound, the “stability of AMPK proteins (CETSA)” value in the data set with AMPK was “enhanced the stability”. Moreover, the “H2O2-induced increase in ROS” value in the data set with PC12 cells was “significantly reduce”. Also, the “myocardial hypertrophy and toxic side effects” value in data set [2] is reported as “did not find”.
